We go through 1 molecule from patent publication US20240252668A1, “ANTIBODY DRUG CONJUGATES AND METHODS FOR MAKING THEREOF” (Novartis AG, priority 2021, published 2024).

Data set [1] relates to 92.1 uveal melanoma cell line (heterozygous GNAQ Q209L). Briefly: Cell proliferation assay (resazurin cell viability), 92.1 cell line. The format is cell-based. A digest of the protocol:
(§1)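 Cells seeded the night before, then treated 96 h at 37 °C in RPMI/10% FCS (A375 in DMEM/10% FCS); compounds 260 nM to 0.036 nM in ⅓ dilution steps, one compound 10000 nM to 1.52 nM. Viability read by resazurin addition after 96 h.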

The subject of data set [2] is MP41 uveal melanoma cell line (heterozygous GNA11 Q209L). Briefly: Cell proliferation assay (resazurin cell viability), MP41 cell line. The format is cell-based. The procedure, abridged:
as §1

Data set [3] can be described thus: EPSA determination by supercritical fluid chromatography. Conditions: supercritical fluid chromatography, Chirex 3014 column; modified EPSA method, SFC; read-out: EPSA. The format is physicochemical. A digest of the protocol: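 SFC on a Chirex 3014 column ([…], 3×100 mm, 100 Å). Gradient runs linearly from 5% to 60% methanol containing 20 mM ammonium formate, in scCO2, over 4.5 min.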

Data set [4] concerns Gαq-mutant uveal melanoma xenografts. Conditions: systemically administered; cited from earlier work.

Like-named read-outs stand apart in the source and are kept apart here. Starred links: 1 amine or outer side, 2 acyl side, 3 side chain; linkers in the order of their positions; H or OH if unused. Positions of bridges follow the written chain, without caps; N, C: chain ends. Non-standard residues stand in square brackets, D forms with d. Residues, ends and D or L forms follow the SMILES beside them. *: point of attachment. Leu(3R-OH,Nα-propionyl) = CCC(=O)N[C@H](C(=O)*)[C@H](O)C(C)C; X1 = CC(C)[C@@H](O[*:3])[C@H](N[*:1])C(=O)[*:2]; NMeT = CN[C@H](C(=O)O)[C@@H](C)O; dPhLac = O=C(O)[C@H](O)Cc1ccccc1; NMeA = CN[C@@H](C)C(=O)O; NMeDha = C=C(NC)C(=O)O

By GI50 is commonly meant the concentration that inhibits growth by half.

Take `C=C1C(=O)N[C@@H](C)C(=O)N(C)[C@@H](C)C(=O)N[C@@H]([C@H](OC(=O)[C@@H](NC(=O)CC)[C@H](O)C(C)C)C(C)C)C(=O)N(C)[C@@H]([C@@H](C)OC)C(=O)O[C@H](C(C)C)[C@H](NC(C)=O)C(=O)O[C@H](Cc2ccccc2)C(=O)N1C` [Compound (A1), FR900359] (Ac-[X1][dPhLac][NMeDha]A[NMeA][X1](Leu(3R-OH,Nα-propionyl))[NMeT](Me); ester 1-C): the GI50 was determined as 600 pM in data set [1] (92.1 (GNAQ Q209L), 96 hours of treatment, read-out: GI50 by cell line, 92.1); 600 pM in data set [1] (92.1 cell line, average of Rep. 1 and 2, read-out: GI50 92.1 Average); 460 pM in data set [1] (92.1 cell line, replicate 1, read-out: GI50 92.1 Rep. 1); 690 pM in data set [1] (92.1 cell line, replicate 2, read-out: GI50 92.1 Rep. 2); 200 pM in data set [2] (MP41 (GNA11 Q209L), 96 hours of treatment, read-out: GI50 by cell line, MP41); 200 pM in data set [2] (MP41 cell line, average of Rep. 1 and 2, read-out: GI50 MP41 Average). Also, the GI50 in data set [2] (MP41 cell line, replicate 1, read-out: GI50 MP41 Rep. 1) amounted to 220 pM; in data set [2] (MP41 cell line, replicate 2, read-out: GI50 MP41 Rep. 2), 270 pM. Moreover, the EPSA in data set [3] was 94 A^2. Besides, in data set [4], the “tolerability of the active doses” value is recorded as “well tolerated”.
